# Measured values as given in US10238670B2, “9-aminomethyl minocycline compounds and methods of use thereof in urinary tract infection (UTI) treatment” (Paratek Pharmaceuticals, Inc., priority 2016, dated 2019).
# Legend:
# Experiment in all cases: In vitro MIC, 2010 surveillance isolates
# MR CoNS = format: cell-based, Coagulase-Negative Staphylococcus
# Acinetobacter spp = format: cell-based
# E. cloacae CeftazS = format: cell-based
# K. pneumoniae ESBL− = format: cell-based, Klebsiella pneumoniae
# K. oxytoca = format: cell-based
# MRSA = format: cell-based
# Enterobacter spp = format: cell-based
# A. baumanii = format: cell-based
# E. coli ESBL+ = format: cell-based, Escherichia coli
# MS CoNS = format: cell-based, Coagulase-Negative Staphylococcus
# MSSA = format: cell-based
# E. cloacae CeftazR = format: cell-based
# K. pneumoniae ESBL+ = format: cell-based, Klebsiella pneumoniae
# E. coli ESBL− = format: cell-based, Escherichia coli
substance,measurement,setting,value
Gentamicin,% R (resistance),"MR CoNS; Asia/Pac, Eucast breakpoints",72.7%
same,MIC90,"MR CoNS; Asia/Pac, N=77",> 8 µg/mL
same,% R (resistance),"MR CoNS; Europe, Eucast breakpoints",56.2%
same,MIC90,"MR CoNS; Europe, N=510",> 8 µg/mL
same,% R (resistance),"MR CoNS; L. Amer, CLSI breakpoints",33.2%
same,MIC90,"MR CoNS; L. Amer, N=301",> 8 µg/mL
same,% R (resistance),"MR CoNS; N America, CLSI breakpoints",22.6%
same,MIC90,"MR CoNS; N America, N=461",> 8 µg/mL
same,% R (resistance),"Acinetobacter spp; Asia/Pac, Eucast breakpoints",33.3%
same,% R (resistance),"Acinetobacter spp; Europe, Eucast breakpoints",32.6%
same,MIC90,"Acinetobacter spp; Europe, N=43",> 8 µg/mL
same,% R (resistance),"Acinetobacter spp; L. Amer, CLSI breakpoints",22.2%
same,% R (resistance),"Acinetobacter spp; N America, CLSI breakpoints",14.3%
same,MIC90,"Acinetobacter spp; N America, N=42",> 8 µg/mL
same,% R (resistance),"E. cloacae CeftazS; Asia/Pac, Eucast breakpoints",6%
same,MIC90,"E. cloacae CeftazS; Asia/Pac, N=100",≤ 1 µg/mL
same,% R (resistance),"E. cloacae CeftazS; Europe, Eucast breakpoints",1.1%
same,MIC90,"E. cloacae CeftazS; Europe, N=183",≤ 1 µg/mL
same,% R (resistance),"E. cloacae CeftazS; L. Amer, CLSI breakpoints",12.3%
same,MIC90,"E. cloacae CeftazS; L. Amer, N=57",> 8 µg/mL
same,% R (resistance),"E. cloacae CeftazS; N America, CLSI breakpoints",0%
same,MIC90,"E. cloacae CeftazS; N America, N=210",≤ 1 µg/mL
same,% R (resistance),"K. pneumoniae ESBL−; Asia/Pac, Eucast breakpoints",3.7%
same,MIC90,"K. pneumoniae ESBL−; Asia/Pac, N=189",≤ 1 µg/mL
same,% R (resistance),"K. pneumoniae ESBL−; Europe, Eucast breakpoints",2.2%
same,MIC90,"K. pneumoniae ESBL−; Europe, N=361",≤ 1 µg/mL
same,% R (resistance),"K. pneumoniae ESBL−; L. Amer, CLSI breakpoints",1.3%
same,MIC90,"K. pneumoniae ESBL−; L. Amer, N=160",≤ 1 µg/mL
same,% R (resistance),"K. pneumoniae ESBL−; N America, CLSI breakpoints",1.2%
same,MIC90,"K. pneumoniae ESBL−; N America, N=671",≤ 1 µg/mL
same,% R (resistance),"K. oxytoca; Asia/Pac, Eucast breakpoints",17.6%
same,MIC90,"K. oxytoca; Asia/Pac, N=17",> 8 µg/mL
same,% R (resistance),"K. oxytoca; Europe, Eucast breakpoints",8.2%
same,MIC90,"K. oxytoca; Europe, N=158",≤ 1 µg/mL
same,% R (resistance),"K. oxytoca; L. Amer, CLSI breakpoints",12%
same,MIC90,"K. oxytoca; L. Amer, N=25",> 8 µg/mL
same,% R (resistance),"K. oxytoca; N America, CLSI breakpoints",2.3%
same,MIC90,"K. oxytoca; N America, N=177",≤ 1 µg/mL
same,% R (resistance),"MRSA; Asia/Pac, Eucast breakpoints",58.6%
same,MIC90,"MRSA; Asia/Pac, N=428",> 8 µg/mL
same,% R (resistance),"MRSA; Europe, Eucast breakpoints",23.1%
same,MIC90,"MRSA; Europe, N=750",> 8 µg/mL
same,% R (resistance),"MRSA; L. Amer, CLSI breakpoints",35.4%
same,MIC90,"MRSA; L. Amer, N=506",> 8 µg/mL
same,% R (resistance),"MRSA; N America, CLSI breakpoints",3.7%
same,MIC90,"MRSA; N America, N=2508",≤ 1 µg/mL
same,% R (resistance),"Enterobacter spp; Asia/Pac, Eucast breakpoints",7.7%
same,MIC90,"Enterobacter spp; Asia/Pac, N=52",≤ 1 µg/mL
same,% R (resistance),"Enterobacter spp; Europe, Eucast breakpoints",4.9%
same,MIC90,"Enterobacter spp; Europe, N=82",≤ 1 µg/mL
same,% R (resistance),"Enterobacter spp; L. Amer, CLSI breakpoints",9.5%
same,MIC90,"Enterobacter spp; L. Amer, N=42",2 µg/mL
same,MIC90,"Enterobacter spp; N America, N=101",≤1 (1)
same,% R (resistance),"A. baumanii; Asia/Pac, Eucast breakpoints",80%
same,MIC90,"A. baumanii; Asia/Pac, N=275",> 8 µg/mL
same,% R (resistance),"A. baumanii; Europe, Eucast breakpoints",61.4%
same,MIC90,"A. baumanii; Europe, N=145",> 8 µg/mL
same,% R (resistance),"A. baumanii; L. Amer, CLSI breakpoints",52.4%
same,MIC90,"A. baumanii; L. Amer, N=275",> 8 µg/mL
same,% R (resistance),"A. baumanii; N America, CLSI breakpoints",57.8%
same,MIC90,"A. baumanii; N America, N=154",> 8 µg/mL
same,% R (resistance),"E. coli ESBL+; Asia/Pac, Eucast breakpoints",58.9%
same,MIC90,"E. coli ESBL+; Asia/Pac, N=219",> 8 µg/mL
same,% R (resistance),"E. coli ESBL+; Europe, Eucast breakpoints",40.5%
same,MIC90,"E. coli ESBL+; Europe, N=274",> 8 µg/mL
same,% R (resistance),"E. coli ESBL+; L. Amer, CLSI breakpoints",39.3%
same,MIC90,"E. coli ESBL+; L. Amer, N=168",> 8 µg/mL
same,% R (resistance),"E. coli ESBL+; N America, CLSI breakpoints",26.1%
same,MIC90,"E. coli ESBL+; N America, N=134",> 8 µg/mL
same,% R (resistance),"MS CoNS; Asia/Pac, Eucast breakpoints",33.3%
same,MIC90,"MS CoNS; Asia/Pac, N=18",4 µg/mL
same,% R (resistance),"MS CoNS; Europe, Eucast breakpoints",9.7%
same,MIC90,"MS CoNS; Europe, N=185",≤ 1 µg/mL
same,% R (resistance),"MS CoNS; L. Amer, CLSI breakpoints",7.5%
same,MIC90,"MS CoNS; L. Amer, N=67",8 µg/mL
same,% R (resistance),"MS CoNS; N America, CLSI breakpoints",2.1%
same,MIC90,"MS CoNS; N America, N=191",≤ 1 µg/mL
same,% R (resistance),"MSSA; Asia/Pac, Eucast breakpoints",8.4%
same,MIC90,"MSSA; Asia/Pac, N=641",≤ 1 µg/mL
same,% R (resistance),"MSSA; Europe, Eucast breakpoints",2.7%
same,MIC90,"MSSA; Europe, N=2109",≤ 1 µg/mL
same,% R (resistance),"MSSA; L. Amer, CLSI breakpoints",1.9%
same,MIC90,"MSSA; L. Amer, N=590",≤ 1 µg/mL
same,% R (resistance),"MSSA; N America, CLSI breakpoints",0.7%
same,MIC90,"MSSA; N America, N=2373",≤ 1 µg/mL
same,% R (resistance),"E. cloacae CeftazR; Asia/Pac, Eucast breakpoints",39.7%
same,MIC90,"E. cloacae CeftazR; Asia/Pac, N=63",> 8 µg/mL
same,% R (resistance),"E. cloacae CeftazR; Europe, Eucast breakpoints",43.1%
same,MIC90,"E. cloacae CeftazR; Europe, N=72",> 8 µg/mL
same,% R (resistance),"E. cloacae CeftazR; L. Amer, CLSI breakpoints",38.1%
same,MIC90,"E. cloacae CeftazR; L. Amer, N=42",> 8 µg/mL
same,% R (resistance),"E. cloacae CeftazR; N America, CLSI breakpoints",20.8%
same,MIC90,"E. cloacae CeftazR; N America, N=77",> 8 µg/mL
same,% R (resistance),"K. pneumoniae ESBL+; Asia/Pac, Eucast breakpoints",58.1%
same,MIC90,"K. pneumoniae ESBL+; Asia/Pac, N=124",> 8 µg/mL
same,% R (resistance),"K. pneumoniae ESBL+; Europe, Eucast breakpoints",58.3%
same,MIC90,"K. pneumoniae ESBL+; Europe, N=151",> 8 µg/mL
same,% R (resistance),"K. pneumoniae ESBL+; L. Amer, CLSI breakpoints",56.9%
same,MIC90,"K. pneumoniae ESBL+; L. Amer, N=209",> 8 µg/mL
same,% R (resistance),"K. pneumoniae ESBL+; N America, CLSI breakpoints",46.3%
same,MIC90,"K. pneumoniae ESBL+; N America, N=108",> 8 µg/mL
same,% R (resistance),"E. coli ESBL−; Asia/Pac, Eucast breakpoints",16.3%
same,MIC90,"E. coli ESBL−; Asia/Pac, N=282",> 8 µg/mL
same,% R (resistance),"E. coli ESBL−; Europe, Eucast breakpoints",7.4%
same,MIC90,"E. coli ESBL−; Europe, N=1533",2 µg/mL
same,% R (resistance),"E. coli ESBL−; L. Amer, CLSI breakpoints",9%
same,MIC90,"E. coli ESBL−; L. Amer, N=389",2 µg/mL
same,% R (resistance),"E. coli ESBL−; N America, CLSI breakpoints",7.7%
same,MIC90,"E. coli ESBL−; N America, N=1172",2 µg/mL
